Values after ≈ are worked out from the molar mass of the structure shown.
Tests used:
[1] = target: T1, EGF-R Kinase (recombinant enzyme) (Homo sapiens, UniProt P00533); experiment: Inhibition of Epidermal Growth Factor Receptor Kinase (EGF-R) using recombinant enzyme; format: biochemical; conditions: RR-SRC peptide substrate, (a) = average of two tests
T1 construct: EGFR cDNA encoding amino acids 645 - 1186 preceded by Met-Ala-(His)6; made in house; host or cells: Sf9 insect cells, recombinant baculovirus vHcEGFR52
Experimental: Representative test compounds are evaluated in a standard pharmacological test procedure to measure their ability to inhibit the phosphorylation of the tyrosine residue of a peptide substrate catalyzed by the enzyme epidermal growth factor receptor kinase. […] The enzyme used in this assay is the His-tagged cytoplasmic domain of EGFR. […] Sf9 cells in 100 mm plates are infected at a multiplicity of infection of 10 pfu/cell and cells are harvested 48 h post infection. A cytoplasmic extract is prepared using 1% Triton X-100 and applied to Ni-NTA column. After washing the column with 20 mM imidazole, HcEGFR is eluted with 250 mM imidazole (in 50 mM Na2HPO4, pH 8.0, 300 mM NaCl). Fractions collected are dialyzed against 10 mM HEPES, pH 7.0, 50 mM NaCl, 10% glycerol, 1ug/mL antipain and leupeptin and 0.1 mM Pefabloc SC. The protein is frozen in dry ice/methanol and stored -70°C.
Test compounds are made into 10 mg/mL stock solutions in 100% dimethylsulfoxide (DMSO). Prior to experiment, stock solutions are diluted to 500 uM with 100% DMSO and then serially diluted to the desired concentration with HEPES buffer (30 mM HEPES pH 7.4).
For the enzyme reaction, 10 uL of each inhibitor (at various concentrations) are added to each well of a 96-well plate. To this is added 3 uL of enzyme (1:10 dilution in 10mM HEPES, pH 7.4 for final conc. of 1:120). This is allowed to sit for 10 min on ice and is followed by the addition of 5 ul peptide (80 uM final conc.), 10ul of 4X Buffer containing 50 mM HEPES (pH 7.4), 200 mM Na3VO4, 40mM MnCl2, 80 uM ATP, 0.25 uL ^33P-ATP (>2500 Ci/mmol; Amersham) and 12 uL H2O. The reaction is allowed to run for 90 min at room temperature and is followed by spotting the entire volume onto precut P81 filter papers. The filter discs are washed 2X with 0.5% phosphoric acid and radioactivity is measured using a liquid scintillation counter.
The % inhibition of the test compound is determined for at least three different concentrations and the IC50 value is evaluated from the dose response curve. […] CPM(control) is in units of counts per minute and is a number expressing the amount of radiolabled ATP (γ-^33P) incorporated into the RR-SRC peptide substrate by the enzyme after 90 minutes at room temperature in the absence of test compound as measured by liquid scintillation counting. The CPM values are corrected for the background counts produced by ATP in the absence of the enzymatic reaction.

[2] = system: A431; experiment: Inhibition of cancer cell growth as measured by cell number (Sulforhodamine B); format: cell-based; conditions: Homo sapiens, A-431; 48 hours exposure
Experimental: (§1) Human tumor cell lines are plated in 96-well plates (250 µl/well, 1-6 x 10^4 cells/ml) in RPMI 1640 medium, containing 5% FBS (Fetal Bovine Serum). Twenty four hours after plating, test compounds are added at various concentrations. After 48 hours exposure to test compounds, cells are fixed with trichloroacetic acid, and stained with Sulforhodamine B. After washing with trichloroacetic acid, bound dye is solubilized in 10 mM Tris base and optical density is determined using plate reader. Under conditions of the assay the optical density is proportional to the number of cells in the well. […] The test procedure is described in detail by Philip Skehan et. al, J. Natl. Canc. Inst., 82, 1107-1112 (1990). […] Information about some of the cell lines used in these test procedures is available from the American Type Tissue Collection: Cell Lines and Hybridomas, 1994 Reference Guide, 8th Edition.

[3] = system: SK-BR3; experiment: as above; format: cell-based; conditions: Homo sapiens, SK-BR-3; 48 hours exposure
Experimental: as §1

[4] = system: MDA-MB-435; experiment: as above; format: cell-based; conditions: Homo sapiens, 48 hours exposure
Experimental: as §1

[5] = system: SW620; experiment: as above; format: cell-based; conditions: Homo sapiens, SW-620; 48 hours exposure
Experimental: as §1

[6] = target: T2, p60^c-src (Src) (Homo sapiens, UniProt P12931); experiment: Src kinase test procedure (Elisa format); format: biochemical
T2 construct: purchased Upstate Biotechnologies
Experimental: Inhibitors of p60^c-src (partially purified preparation purchased from Upstate Biotechnologies) tyrosine kinase activity are analyzed in an Elisa format. […] HRP-conjugated anti-phosphotyrosine is used to detect phosphorylated peptide via a color reaction. Conditions recommended by the manufacturer are employed.
Reaction conditions: Five microliter aliquots of each compound prepared fresh at the time of the assay are added as a solution in 10mM HEPES pH 7.5, 10% DMSO to the reaction well. Thirty-five microliters of reaction mix containing Src, buffer and peptide/bovine serum albumin mix are added to the compound wells and incubated at 30°C for 10 minutes (reaction buffer: 50mM TrisHCl pH 7.5, 10mM MgCl2, 0.1mM EGTA, 0.5mM Na3VO4). The reaction is started by addition of 10 microliters of ATP, incubated at 30°C for 1 hour, and stopped by addition of 20 microliters of 0.5M EDTA. The reaction mixture with the phosphorylated peptide is then transferred to a streptavidin-coated microtiter plate (provided in the kit) and allowed to bind for 20 minutes. Unbound peptide and reaction mixture is decanted and the plate is washed with PBS six times. Horseradish peroxidase-conjugated phosphotyrosine antibody supplied in the kit is incubated with the plate for one hour, then decanted. The plate is again washed with PBS six times.

[7] = system: Rat2 fibroblasts stably transformed with v-Src/Hu c-Src fusion gene; experiment: Anchorage independent Src-transformed fibroblast proliferation test procedure; format: cell-based; conditions: Rattus norvegicus, the 3rd table c6, (a)-(d) = average of two to five runs, read-out: Src TF prolif IC50
From the text: Anchorage Independent Src-transformed Fibroblast Proliferation Test Procedure: Rat2 fibroblasts stably transformed with a plasmid containing a CMV promotor controlled v-Src/Hu c-Src fusion gene in which the catalytic domain of human c-Src is inserted in place of the v-Src catalytic domain in the v-Src gene are used for the measurement of src dependent suspension growth.

T2 sequence (P12931 whole entry): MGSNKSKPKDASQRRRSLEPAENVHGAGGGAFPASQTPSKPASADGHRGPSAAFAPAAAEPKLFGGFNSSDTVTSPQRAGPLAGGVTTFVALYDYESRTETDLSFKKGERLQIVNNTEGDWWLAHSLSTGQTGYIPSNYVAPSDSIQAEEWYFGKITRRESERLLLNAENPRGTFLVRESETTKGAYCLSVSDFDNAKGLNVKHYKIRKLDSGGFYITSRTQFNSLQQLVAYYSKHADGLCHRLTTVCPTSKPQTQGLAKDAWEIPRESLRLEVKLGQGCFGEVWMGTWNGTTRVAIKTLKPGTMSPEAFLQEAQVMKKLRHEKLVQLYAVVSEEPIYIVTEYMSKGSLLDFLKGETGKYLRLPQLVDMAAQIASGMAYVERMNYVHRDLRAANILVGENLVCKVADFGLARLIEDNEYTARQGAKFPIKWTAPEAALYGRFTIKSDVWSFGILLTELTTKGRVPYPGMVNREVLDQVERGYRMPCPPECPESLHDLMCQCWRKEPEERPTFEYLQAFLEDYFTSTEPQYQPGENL
T1 sequence (P00533 669-1210): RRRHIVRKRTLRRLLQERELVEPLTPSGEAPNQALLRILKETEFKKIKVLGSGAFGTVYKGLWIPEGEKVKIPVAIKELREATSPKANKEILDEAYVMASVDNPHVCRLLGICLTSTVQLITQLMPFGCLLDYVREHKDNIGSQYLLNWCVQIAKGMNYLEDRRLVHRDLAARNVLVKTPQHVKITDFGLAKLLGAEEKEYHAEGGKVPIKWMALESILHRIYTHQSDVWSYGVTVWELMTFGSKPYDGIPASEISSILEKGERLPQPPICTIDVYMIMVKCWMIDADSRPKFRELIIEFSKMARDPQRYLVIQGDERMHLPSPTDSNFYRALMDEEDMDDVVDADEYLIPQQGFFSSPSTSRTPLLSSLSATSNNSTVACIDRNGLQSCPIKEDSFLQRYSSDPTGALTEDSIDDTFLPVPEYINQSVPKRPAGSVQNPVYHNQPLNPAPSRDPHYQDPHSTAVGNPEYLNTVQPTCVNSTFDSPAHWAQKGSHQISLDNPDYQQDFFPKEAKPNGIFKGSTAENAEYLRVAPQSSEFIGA

| IC50 [1] [nM] | IC50 [2] [µg/mL] | IC50 [3] [µg/mL] | IC50 [4] [µg/mL] | IC50 [5] [µg/mL] | inhibition at 0.01 µM ([6]; dose 0.01 µM, read-out: Src %Inh) [%] | inhibition at 10 µM ([6]; dose 10 µM, read-out: Src %Inh) [%] | Src %Inh ([6]; dose 10 µM) [%] | inhibition at 1 µM ([6]; dose 1 µM, read-out: Src %Inh) [%] | Structure (SMILES) | IC50 [7] [nM] |
| --- | --- | --- | --- | --- | --- | --- | --- | --- | --- | --- |
| 5 | 0.332 (≈ 0.955 µM) | 1.01 (≈ 2.9 µM) | 1.65 (≈ 4.74 µM) | 1.08 (≈ 3.11 µM) |  |  |  |  | N#Cc1cnc2cc3ccccc3cc2c1Nc1ccc(F)c(Cl)c1 [Example 4, 4-(3-Chloro-4-fluoroanilino)benzo[g]quinoline-3-carbonitrile] |  |
|  | 0.58 (≈ 1.46 µM) | > 5 | 0.85 (≈ 2.15 µM) | 0.38 (≈ 0.959 µM) | 10 |  |  |  | N#Cc1cnc2cc3cc(O)c(O)cc3cc2c1Nc1ccc(Cl)cc1Cl [Example 15, 4-(2,4-Dichloroanilino)-7,8-dihydroxybenzo[g]quinoline-3-carbonitrile] |  |
| 1.5 | 0.58 (≈ 1.59 µM) | 0.6 (≈ 1.65 µM) | 3.48 (≈ 9.56 µM) | 3.72 (≈ 10.2 µM) |  |  |  |  | N#Cc1cnc2c(c1Nc1cccc(Br)c1)C=C1N=CN=C1C2 [Example 37, 8-(3-Bromo-phenylamino)imidazo[4,5-g]quinoline-7-carbonitrile] |  |
| 1000 | > 5 | > 5 | > 5 | > 5 |  | 7 |  |  | N#Cc1cnc2c(sc3ccccc32)c1Nc1cccc(Br)c1 [Example 65, 4-(3-Bromophenylamino)benzo[4,5]thieno[3,2-b]pyridine-3-carbonitrile] |  |
| 1000 | > 5 | > 5 | > 5 | > 5 |  | 53 | 44 |  | N#Cc1cnc2c(oc3ccccc32)c1Nc1cccc(Br)c1 [Example 85, 4-(3-Bromophenylamino)benzo[4,5]furo[3,2-b]pyridine-3-carbonitrile] |  |
|  | 0.41 (≈ 0.987 µM) | 0.59 (≈ 1.42 µM) | 0.46 (≈ 1.11 µM) | 0.67 (≈ 1.61 µM) |  |  |  | 0 | N#Cc1cnc2c(sc3ccc([N+](=O)[O-])cc32)c1Nc1ccc(Cl)cc1Cl [Example 90, 4-(2,4-Dichloroanilino)-8-nitro[1]benzothieno[3,2-b]pyridine-3-carbonitrile] |  |
|  | > 5 | > 5 | > 5 | > 5 |  |  |  |  | N#Cc1cnc2c(sc3ccc(N)cc32)c1Nc1cccc(Br)c1 [Example 92, 8-Amino-4-(3-bromoanilino)-[1]benzothieno[3,2-b]pyridine-3-carbonitrile] |  |
|  | 0.838 (≈ 1.86 µM) | 0.224 (≈ 0.499 µM) | 1.69 (≈ 3.76 µM) | 1 (≈ 2.23 µM) |  |  |  |  | C=CC(=O)Nc1ccc2sc3c(Nc4cccc(Br)c4)c(C#N)cnc3c2c1 [Example 93, N-[4-(3-Bromoanilino)-3-cyano[1]benzothieno[3,2-b]pyridin-8-yl]acrylamide] |  |
| 100 | 1.11 (≈ 2.47 µM) | 1.09 (≈ 2.43 µM) | 3.9 (≈ 8.68 µM) | > 5 |  |  |  |  | C=CC(=O)Nc1cccc2c1sc1c(Nc3cccc(Br)c3)c(C#N)cnc12 [Example 94, N-[4-(3-Bromoanilino)-3-cyano[1]benzothieno[3,2-b]pyridin-6-yl]acrylamide] |  |
| 1890 | 0.76 (≈ 1.5 µM) | 0.04 (≈ 0.0789 µM) |  | 0.36 (≈ 0.71 µM) |  |  |  |  | COc1cc2cc3ncc(C#N)c(Nc4ccc(F)c(Cl)c4)c3cc2cc1OCCN1CCOCC1 [Example 212, 4-(3-Chloro-4-fluoroanilino)-8-methoxy-7-[2-(4-morpholinyl)ethoxy]benzo[g]quinoline-3-carbonitrile] | > 10000 |
